The values that follow come from patent publication US10260068B2, “Prophylactic agent and therapeutic agent for fibrodysplasia ossificans progressiva” (Sumitomo Dainippon Pharma Co., Ltd., priority 2014, dated 2019).

Assay [1] concerns SMAD1/5/8. The assay is described as follows: SMAD1/5/8 phosphorylation by Western blotting in gene-corrected clone derived cells. The format is cell-based, human. Conditions: 10 and 100 ng/mL activin A or 100 ng/mL BMP-7, 60 minutes. Here is the method:
Mesenchymal stem cell-like cells from a patient iPS cell line and a gene-corrected iPS cell clone were each prepared by the same method as Example 1. Culturing was conducted for 60 minutes with addition of 10 ng/mL and 100 ng/mL of human activin A or 100 ng/mL of human BMP-7 to the mesenchymal stem cell-like cells. The cells were then solubilized with 300 μL of a dissolving solution (70 mM Tris-HCl buffer solution, pH 6.8, 11.2% glycerol, 3% sodium dodecyl sulfate), and a cell extract was prepared. The amount of phosphorylated SMAD1/5/8 and the amount of total SMAD1/5/8 in the obtained cell extract were quantified by Western blotting. As the primary antibody for phosphorylated SMAD1/5/8 there was used rabbit anti-phosphorylated SMAD1/5/8 antibody [product of Cell Signaling Tech., trade name: Phospho-Smad1 (Ser463/465)/Smad5 (Ser463/465)/Smad8 (Ser426/428) Antibody (Rabbit)], and as the primary antibody for total SMAD1/5/8 there was used rabbit anti-total SMAD1/5/8 antibody [product of Santa Cruz Biotechnology, trade name: Smad1/5/8 Antibody (N-18)-R (Rabbit)]. The secondary antibody used was horseradish peroxidase conjugated anti-rabbit antibody (product of Cell Signaling Tech., trade name: Anti-rabbit IgG, HRP-linked Antibody). […]

Assay [2] has as its system FOP patient derived cells. The experiment in a line: Differentiation to chondrocytes (Alcian blue, sulfated glycosaminoglycan assay) of FOP patient derived cells. The format is cell-based, human. Conditions: for cartilage induction (sulfated glycosaminoglycan assay): 100 ng/mL activin A, vs untreated group. Here is the method:
Mesenchymal stem cell-like cells from a patient iPS cell line and a gene-corrected iPS cell clone were each prepared by the same method as Example 1. The mesenchymal stem cell-like cells were cultured for 6 days under the medium conditions used in the method of Umeda et al. (Sci. Rep., 2012, 2, 455), for differentiation to chondrocytes. During differentiation, 100 ng/mL of human activin A, 100 ng/mL of human BMP-7 or 1 ng/mL of human TGF-β3 (product of R&D Systems, Inc., trade name: Recombinant Human TGF-beta 3) was added and the effect of each factor on differentiation to chondrocytes was examined. The extent of differentiation to chondrocytes was measured with Alcian blue dye and a sulfated glycosaminoglycan assay kit (product of Biocolor, Ltd., trade name: Blyscan Glycosaminoglycan Assay Kit). In FIG. 4, the bar graph indicates the mean values for each treated group, and the error bars represent S.D.

Where [3] appears, read: FOP patient derived cells, 100 ng/mL BMP-7 or 1 ng/mL TGF-β3, 6 days.

“human activin A: Recombinant Human/Mouse/Rat Activin A (R&D Systems); homodimer of inhibin βA chains”: in assay [1], the “phosphorylation of SMAD1/5/8” value is on record as “no phosphorylation of SMAD1/5/8 was induced”. In assay [2] (100 ng/mL, 6 days), the “sulfated glycosaminoglycan production in FOP patient derived cells compared to gene-corrected cells” value worked out at 4 fold. Besides, the “cartilage induction (sulfated glycosaminoglycan assay)” value in assay [2] (setting [3]) is reported as “very notably enhances”. The “differentiation to chondrocytes (Alcian blue staining)” value in assay [2] (FOP patient derived cells, 100 ng/mL, 6 days) was “notably enhances”.

B1: BMP-7: Recombinant Human BMP-7 (R&D Systems); cytokine of the BMP family (protein)
chain: STGSKQRSQNRSKTPKNQEALRMANVAENSSSDQRQACKKHELYVSFRDLGWQDWIIAPEGYAAYYCEGECAFPLNSYMNATNHAIVQTLVHFINPETVPKPCCAPTQLNAISVLYFDDSSNVILKKYRNMVVRACGCH
In the case of B1, in assay [1], the “phosphorylation of SMAD1/5/8” value is “occurred”. The “cartilage induction effect compared to the effect exhibited by activin A on FOP patient derived cells” value in assay [2] (100 ng/mL BMP-7 or 1 ng/mL TGF-β3, 6 days) is reported as “weaker”. Moreover, the “cartilage induction (sulfated glycosaminoglycan assay)” value in assay [2] (setting [3]) is “significantly enhanced”.
